This note sets out measurements from patent US7408065B2, “P2X7 receptor antagonists and their use” (AstraZeneca AB, priority 2003, dated 2008).

Counter-ions that a name gives are not always drawn.

Consider `O=C(CC1CCCCC1)Nc1c(Cl)ccc2nc(N3C[C@@H]4C[C@H]3CN4)ccc12` (as salt: acetate) [Example 13, N-[6-Chloro-2-[(1S,4S)-2,5-diazabicyclo[2.2.1]hept-2-yl]-5-quinolinyl]-cyclohexaneacetamide, Acetate], for which the melting point was 120 °C (dec.). The figure for `Cc1ccc2nc(N3CC[C@H](N)C3)ccc2c1C(=O)NCC1CCCCC1` (as salt: acetate) [Example 58, 2-[(3S)-3-Amino-1-pyrrolidinyl]-N-(cyclohexylmethyl)-6-methyl-5-quinolinecarboxamide, Acetate] is 154 to 155 °C; for `O=C(O)CN1CCN(c2ccc3c(C(=O)NCC4CCCCC4)c(Cl)ccc3n2)CC1` (as salt: acetate) [Example 73, 4-[6-Chloro-5-[[(cyclohexylmethyl)amino]carbonyl]-2-quinolinyl]-1-piperazineacetic acid, Acetate] it is 185 to 190 °C. As for `O=C(CC1CCCCC1)Nc1c(Cl)ccc2nc(CC3CCNCC3)ccc12` (as salt: hydrochloride), the melting point was 170 to 175 °C.

Take `CN1CCN(c2ccc3c(NC(=O)CC4CCCCC4)c(Cl)ccc3n2)CC1` (as salt: hydrochloride): the melting point was 270 °C (dec.).

`CCNCCCc1ccc2c(NC(=O)CC3CCCCC3)c(Cl)ccc2n1` (as salt: hydrochloride) displayed a melting point of 152 to 155 °C.

On to `O=C(CC1CCCCC1)Nc1c(Cl)ccc2nc(N3CCNCC3)ccc12` (as salt: hydrochloride), for which the melting point is greater than 250 °C.

For `CCCCNCCCc1ccc2c(NC(=O)CC3CCCCC3)c(Cl)ccc2n1` (as salt: hydrochloride), the melting point is 219 to 221 °C.

`CNCCCN(C)c1ccc2c(NC(=O)C3(C4CCCCC4)CC3)c(Cl)ccc2n1` (as salt: hydrochloride) yielded a melting point of 215 to 218 °C. The figure for `Cc1ccc2c(C(=O)NCC3CCCCC3)c(Cl)ccc2n1` (as salt: hydrochloride) is 210 to 213 °C. As for `O=C(NCC1CCCCC1)c1c(Cl)ccc2nc(N3CCNCC3)ccc12` (as salt: hydrochloride), the melting point fell in the range of 305 to 306 °C. The figure for `CNCCCN(C)c1ccc2c(NC(=O)CC3CCC(C(F)(F)F)CC3)c(Cl)ccc2n1` (stereo not shown) (as salt: hydrochloride) is 250 °C (dec.). The figure for `CNCCCN(C)c1ccc2c(NC(=O)CC3CCCCC3)c(Cl)ccc2n1` (as salt: hydrochloride) [Example 3, N-[6-Chloro-2-[methyl[3-(methylamino)propyl]amino]-5-quinolinyl]-cyclohexaneacetamide, Dihydrochloride] is 231 to 233 °C. The figure for `O=C(CC1CCCCC1)Nc1c(Cl)ccc2nc(N[C@@H]3CCNC3)ccc12` (as salt: hydrochloride) [Example 14, N-[6-Chloro-2-[(3R)-3-pyrrlidinylamino]-5-quinolinyl]-cyclohexaneacetamide, Dihydrochloride] is 193 to 198 °C.

`CCNCCCc1ccc2c(NC(=O)CC3CCCCC3)c(C)ccc2n1` (as salt: hydrochloride) [Example 15, N-[2-[3-(Ethylamino)propyl]-6-methyl-5-quinolinyl]-cyclohexaneacetamide, Dihydrochloride] registered a melting point of 231 to 234 °C. The compound `O=C(CC1CCCCC1)Nc1c(Cl)ccc2nc(NCCNCCO)ccc12` (as salt: hydrochloride) [Example 17, N-[6-Chloro-2-[[2-[(2-hydroxyethyl)amino]ethyl]amino]-5-quinolinyl]-cyclohexaneacetamide, Dihydrochloride] displayed a melting point of 238 to 240 °C. The figure for `O=C(NCC1CCCCC1)c1c(Cl)ccc2nc(N3CC[C@H](NCCO)C3)ccc12` (as salt: hydrochloride) [Example 50, 6-Chloro-N-(cyclohexylmethyl)-2-[(3S)-3-[(2-hydroxyethyl)amino]-1-pyrrolidinyl]-5-quinolinecarboxamide, Hydrochloride] is 211 to 220 °C; for `O=C(O)CN1CCN(c2ccc3c(NC(=O)CC4CCCCC4)c(Cl)ccc3n2)CC1` (as salt: salt) it is 320 to 326 °C; for `O=C(NCC1CCCCC1)c1c(Cl)ccc2nc(N3CCC(C(=O)O)CC3)ccc12` (as salt: sodium) [Example 74, 1-[6-Chloro-5-[[(cyclohexylmethyl)amino]carbonyl]-2-quinolinyl]-4-piperidinecarboxylic Acid, Sodium Salt] it is 320 to 324 °C. The figure for `O=C(CC1CCCCC1)Nc1c(Cl)ccc2nc(CCCc3nnn[nH]3)ccc12` (as salt: trifluoroacetate) is 140 to 145 °C; for `O=C(NCC1CCCCC1)c1c(Cl)ccc2nc(N3CCC[C@H]3C(=O)O)ccc12` (as salt: trifluoroacetate) it is 168 to 170 °C; for `O=C(O)CC1CCN(c2ccc3c(C(=O)NCC4CCCCC4)c(Cl)ccc3n2)CC1` (as salt: trifluoroacetate) it is 79 to 83 °C. As for `O=C(CC1CCCCC1)Nc1c(Cl)ccc2nc(N3CCC[C@@H]3C(=O)O)ccc12` (as salt: trifluoroacetate) [Example 65, 1-[6-Chloro-5-[(cyclohexylacetyl)amino]-2-quinolinyl]-D-proline, Trifluoroacetate], the melting point was 170 to 173 °C. As for `O=C(CC1CCCCC1)Nc1c(Cl)ccc2nc(NC[C@@H](O)CO)ccc12` [Example 6, N-[6-Chloro-2-[[(2R)-2,3-dihydroxypropyl]amino]-5-quinolinyl]-cyclohexaneacetamide], the melting point is 155 to 159 °C. The figure for `O=C(O)CCCNc1ccc2c(NC(=O)CC3CCCCC3)c(Cl)ccc2n1` [Example 7, 4-[[6-Chlor-5-[(cyclohexylacetyl)amino]-2-quinolinyl]amino]-butanoic Acid] is 248 to 250 °C. `O=C(CC1CCC(C(F)(F)F)CC1)Nc1c(Cl)ccc2nc(N3CCNCC3)ccc12` (stereo not shown) [Example 9, N-[6-Chloro-2-(1-piperazinyl)-5-quinolinyl]-4-(trifluoromethyl)-cyclohexaneacetamide] displayed a melting point of 186 to 190 °C. The figure for `O=C(CC1CCCCC1)Nc1c(Cl)ccc2nc(N3CCCNCC3)ccc12` [Example 10, N-[6-Chlor-2-(hexahydro-1H-1,4-diazepin-1-yl)-5-quinolinyl]-cyclohexaneacetamide] is 186 to 188 °C.

The compound `C[C@@H]1CN(c2ccc3c(NC(=O)CC4CCCCC4)c(Cl)ccc3n2)C[C@H](C)N1` [Example 11] showed a melting point of 250 to 252 °C. `O=C(CC1CCCCC1)Nc1cccc2ncccc12` [Example 18, N-5-Quinolinyl-cyclohexaneacetamide] showed a melting point of 183 to 184 °C. The compound `CC1(CC(=O)Nc2cccc3ncccc23)CCCCC1` [Example 19, 1-Methyl-N-5-quinolinyl-cyclohexaneacetamide] returned a melting point of 133 to 135 °C. The figure for `O=C(CCC1CCCC1)Nc1cccc2ncccc12` [Example 21, N-5-Quinolinyl-cyclopentanepropanamide] is 135 to 138 °C. Compound `O=C(CC1CCCCC1)Nc1c(Cl)ccc2nc(CCCNCCCO)ccc12` [Example 22, N-[6-Chloro-2-[3-[(3-hydroxypropyl)amino]propyl]-5-quinolinyl]-cyclohexaneacetamide] had a melting point of 159 to 163 °C. The figure for `NCCCc1ccc2c(NC(=O)CC3CCCCC3)c(Cl)ccc2n1` [Example 23, N-[2-(3-Aminopropyl)-6-chloro-5-quinolinyl]-cyclohexaneacetamide] is 121 to 130 °C; for `O=C(Nc1c(Cl)ccc2nc(N3CCNCC3)ccc12)C1(C2CCCCC2)CC1` [Example 27, N-[6-Chloro-2-(1-piperazinyl)-5-quinolinyl]-1-cyclohexyl-cyclopropanecarboxamide] it is 219 °C. The figure for `O=C(CC1CCCCC1)Nc1c(Cl)ccc2nc(N3CC[C@H](O)C3)ccc12` [Example 29, N-[6-Chloro-2-[(3S)-3-hydroxy-1-pyrrolidinyl]-5-quinolinyl]-cyclohexaneacetamide] is 219 to 221 °C. The figure for `N[C@@H]1CCN(c2ccc3c(NC(=O)CC4CCCCC4)c(Cl)ccc3n2)C1` [Example 30, N-[2-[(3R)-3-Amino-1-pyrrolidinyl]-6-chloro-5-quinolinyl]-cyclohexaneacetamide] is 201 to 206 °C; for `N[C@H]1CCN(c2ccc3c(NC(=O)CC4CCCCC4)c(Cl)ccc3n2)C1` [Example 31, N-[2-[(3S)-3-Amino-1-pyrrolidinyl]-6-chloro-5-quinolinyl]-cyclohexaneacetamide] it is 219 to 226 °C.

On to `NC1CCN(c2ccc3c(NC(=O)CC4CCCCC4)c(Cl)ccc3n2)CC1` [Example 32, N-[2-(4-Amino-1-piperidinyl)-6-chloro-5-quinolinyl]-cyclohexaneacetamide], for which the melting point lay in the range of 333 to 334 °C.

Compound `O=C(CC1CCCCC1)Nc1c(Cl)ccc2nc(N3CC[C@@H](NCCO)C3)ccc12` [Example 34, N-[6-Chloro-2-[(3R)-3-[(2-hydroxyethyl)amino]-1-pyrrolidinyl]-5-quinolinyl]-cyclohexaneacetamide] showed a melting point of 197 to 199 °C. The figure for `CN[C@H]1CCN(c2ccc3c(NC(=O)CC4CCCCC4)c(Cl)ccc3n2)C1` [Example 35, N-[6-Chloro-2-[(3S)-3-(methylamino)-1-pyrrolidinyl]-5-quinolinyl]-cyclohexaneacetamide] is 164 to 165 °C; for `O=C(CC1CCCCC1)Nc1c(Cl)ccc2nc(N3CC[C@H](NCCO)C3)ccc12` [Example 36, N-[6-Chloro-2-[(3S)-3-[(2-hydroxyethyl)amino]-1-pyrrolidinyl]-5-quinolinyl]-cyclohexaneacetamide] it is 194 to 196 °C; for `Cc1ccc2nc(N3CC[C@H](N)C3)ccc2c1NC(=O)CC1CCCCC1` [Example 38, N-[2-[(3S)-3-Amino-1-pyrrolidinyl]-6-methyl-5-quinolinyl]-cyclohexaneacetamide] it is 223 to 224 °C. In the case of `O=C(O)CNc1ccc2c(NC(=O)CC3CCCCC3)c(Cl)ccc2n1` [Example 40, N-[6-Chloro-5-[(cyclohexylacetyl)amino]-2-quinolinyl]-glycine], the melting point was 222 to 225 °C (dec.).

For orientation: melting point means the temperature of the solid-liquid transition.
